Positions of bridges follow the written chain, without caps; N, C: chain ends. Residues, ends and D or L forms follow the SMILES beside them.
How the values were obtained:
CRP protein = biological target: T1, CRP protein (Homo sapiens, UniProt P02741); experiment: One-step injection SPR (Taylor dispersion), CRP immobilized; format: binding
T1 construct: purchased Sigma-Aldrich
T1 sequence (P02741 19-224): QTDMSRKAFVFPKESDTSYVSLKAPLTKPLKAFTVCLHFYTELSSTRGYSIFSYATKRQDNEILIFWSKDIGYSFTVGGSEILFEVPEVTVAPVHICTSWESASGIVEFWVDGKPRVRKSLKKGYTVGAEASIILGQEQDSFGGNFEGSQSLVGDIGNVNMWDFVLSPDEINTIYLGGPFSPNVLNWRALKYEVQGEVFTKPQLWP
Experimental: (§1) SPR experiments were performed by one-step injection with the aim of evaluating and confirming the binding constant between peptide and biomarkers. Analyte concentrations of 30 μM of VEFG-114 peptide and 245 μM of CRP-1 peptide were used. The one-step experiment was based on the Taylor dispersion theory, so a unique concentration of peptide was dispersed into a running buffer directly in the flow cell in order to have a final sigmoidal profile.[41],[42] […] For the G6 peptide, the affinity against the TNFα protein was previously estimated by our research group in a recent study (data not shown).[18]
SPR experiments were performed by one-step injection. VEGF and CRP protein were immobilized at a concentration of 100 μg/mL in a 10 mM acetate buffer pH 4.5 and 3.5, respectively, (flow 10 μL/min, injection time 20 min) on a COOH1 SensiQ sensor chip, using EDC/NHS chemistry (0.4 M EDC/0.1 M NHS, flow 25 μL/min, injection time 4 min), achieving an 800 RU signal. Groups of reactive residues were deactivated by treatment with ethanolamine hydrochloride 1 M, pH 8.5. The reference channel was prepared by activation with EDC/NHS and deactivation with ethanolamine. Analyte concentrations of 30 μM for VEFG-114 peptide and 245 μM for CRP-1 peptide were used with a flow rate of 100 μL min^–1 and a 300 s dissociation time. […]

VEGF protein = biological target: T2, VEGF protein (Homo sapiens, UniProt P15692); experiment: One-step injection SPR (Taylor dispersion), VEGF immobilized; format: binding
T2 construct: purchased Peprotech
T2 sequence (P15692 1-191 isoform P15692-4): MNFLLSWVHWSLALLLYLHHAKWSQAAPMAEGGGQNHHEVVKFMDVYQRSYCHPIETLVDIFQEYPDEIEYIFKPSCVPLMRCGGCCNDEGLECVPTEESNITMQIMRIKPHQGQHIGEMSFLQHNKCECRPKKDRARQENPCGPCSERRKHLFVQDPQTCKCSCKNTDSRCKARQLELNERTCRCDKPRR
Experimental: as §1
Reagents for peptide synthesis (Fmoc-protected amino acids, resins, activation, and deprotection reagents) were purchased from Iris Biotech GmbH (Waldershofer Str. 49–51, 95615); EDC/NHS, PDMS, and CRP (C- Reactive Protein) were from Sigma-Aldrich. VEGF (Recombinant Human VEGF165) was purchased from Peprotech. Anti-CRP (Anti-C Reactive Protein antibody (FITC) (ab19174)) and Anti-VEGF (Anti-Recombinant Human VEGF antibody (FITC)) were from Abcam. TNF-α and Anti-TNF-α (Anti-Tumor Necrosis Factor-α antibody (FITC)) were from Prospec. Solvents for peptide synthesis and HPLC analyses were purchased from Sigma-Aldrich; reversed-phase columns for peptide analysis and the LC–MS system were supplied, respectively, from Agilent Technologies and Waters (Milan, Italy). […]

SMILES | dissociation value (in words) (CRP protein; 245 μM CRP-1 peptide, 1:1 interaction model) | Kd (CRP protein; CRP immobilized at 100 μg/mL (10 mM acetate pH 3.5) on COOH1 SensiQ chip, 245 μM CRP-1 analyte, 100 μL/min, 300 s dissociation, 1:1 binding model, QDAT, mean ± SD) [µM] | dissociation value (in words) (VEGF protein; 30 μM peptide, 1:1 interaction model) | Kd (VEGF protein; VEGF immobilized at 100 μg/mL (10 mM acetate pH 4.5) on COOH1 SensiQ chip, 30 μM VEGF-114 analyte, 100 μL/min, 300 s dissociation, 1:1 binding model, QDAT, mean ± SD) [µM]
CC(C)C[C@H](NC(=O)[C@H](CCC(N)=O)NC(=O)[C@@H]1CSSC[C@H](NC(=O)[C@H](C)NC(=O)[C@H](Cc2c[nH]c3ccccc23)NC(=O)[C@@H](N)CCC(=O)O)C(=O)N[C@@H](CC(N)=O)C(=O)N[C@@H](CC(=O)O)C(=O)N[C@@H](CCCNC(=N)N)C(=O)NCC(=O)N[C@@H](Cc2ccccc2)C(=O)N[C@@H](CC(N)=O)C(=O)N1)C(=O)N[C@@H](CCC(N)=O)C(=O)N[C@@H](CCCNC(=N)N)C(N)=O [CRP-1] (H-EWACNDRGFNCQLQR-NH2; disulfide 4-11) | low micromolar | 12 ± 0.1 | – | –
CC[C@H](C)[C@@H]1NC(=O)[C@H](CC(=O)O)NC(=O)[C@@H](NC(=O)[C@H](CC(N)=O)NC(=O)[C@@H]2CCCN2C(=O)[C@H](CCC(=O)O)NC(=O)[C@@H](N)C(C)C)CSSC[C@@H](C(=O)N[C@@H](Cc2ccccc2)C(=O)N[C@@H](CCC(=O)O)C(=O)N[C@@H](CCCNC(=N)N)C(=O)N[C@@H](CC(C)C)C(N)=O)NC(=O)[C@H](CCC(=O)O)NC(=O)[C@H](Cc2c[nH]c3ccccc23)NC(=O)[C@H](CCC(=O)O)NC(=O)[C@H](Cc2c[nH]c3ccccc23)NC(=O)[C@H](CCSC)NC(=O)[C@H](C(C)C)NC(=O)[C@H](Cc2c[nH]cn2)NC1=O [VEGF-114] (H-VEPNCDIHVMWEWECFERL-NH2; disulfide 5-15) | – | – | low micromolar | 10 ± 0.7
